The text below walks through data of patent publication US10947213B1 (Merck Patent GmbH, priority 2015, dated 2021).

pIC50: −log10 of the molar value. Counter-ions that a name gives are not always drawn.

For the test, the target named is T1, TLR7/NFKb HEK cells (Homo sapiens, UniProt Q9NYK1).
T1 construct: expressed in transfected cells; host or cells: HEK cells (TLR7/NFKb reporter line)
T1 sequence (Q9NYK1 27-1049): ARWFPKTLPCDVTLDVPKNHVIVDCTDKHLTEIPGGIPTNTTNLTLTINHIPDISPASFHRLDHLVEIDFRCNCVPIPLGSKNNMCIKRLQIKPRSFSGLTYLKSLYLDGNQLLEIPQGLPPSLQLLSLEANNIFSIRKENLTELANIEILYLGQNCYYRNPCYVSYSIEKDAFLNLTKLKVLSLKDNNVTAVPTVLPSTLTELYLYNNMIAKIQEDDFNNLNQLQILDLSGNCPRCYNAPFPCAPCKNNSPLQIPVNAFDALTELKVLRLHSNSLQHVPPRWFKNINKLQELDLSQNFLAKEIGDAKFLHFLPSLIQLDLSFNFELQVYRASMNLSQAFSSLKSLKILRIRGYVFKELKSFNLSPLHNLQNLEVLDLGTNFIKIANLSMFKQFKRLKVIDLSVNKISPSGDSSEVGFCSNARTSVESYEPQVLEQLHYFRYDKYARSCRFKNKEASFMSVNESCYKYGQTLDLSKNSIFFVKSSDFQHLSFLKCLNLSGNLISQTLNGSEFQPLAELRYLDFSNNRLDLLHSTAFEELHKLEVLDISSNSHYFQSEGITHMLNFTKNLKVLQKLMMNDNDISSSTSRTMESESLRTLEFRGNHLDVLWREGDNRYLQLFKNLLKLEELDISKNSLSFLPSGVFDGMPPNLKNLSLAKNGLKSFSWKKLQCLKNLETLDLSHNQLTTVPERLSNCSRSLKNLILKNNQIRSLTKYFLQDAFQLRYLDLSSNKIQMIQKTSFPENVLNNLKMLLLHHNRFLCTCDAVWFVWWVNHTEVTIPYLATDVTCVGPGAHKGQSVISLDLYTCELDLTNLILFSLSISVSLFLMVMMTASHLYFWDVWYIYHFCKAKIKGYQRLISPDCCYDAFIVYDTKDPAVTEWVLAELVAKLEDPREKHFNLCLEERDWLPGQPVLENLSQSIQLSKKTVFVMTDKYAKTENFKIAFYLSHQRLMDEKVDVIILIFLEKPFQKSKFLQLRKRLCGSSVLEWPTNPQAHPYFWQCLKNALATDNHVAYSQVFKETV
The test can be described thus: HEK Cell Assay (TLR7/NFKb reporter, Steady-Glo luciferase readout). As to conditions: 30 min compound preincubation, then R*48 agonist for 5 hours, read-out: Potency. It is filed as cell-based. The protocol:
Example 142: HEK Cell Assay
Into 384 CulturePlates (Corning 3707) was placed 5000 c/w of TLR7/NFKb HEK cells in 30 uL DMEM without Phenil red (gibco #31053) and 10% i.a. FCS and 2 mM L-ZGLutamin. The cells were incubated for 24 h at 37° C., 10% carbon dioxide and 90% relative humidity. 3 uL of controls, standards, and compounds were dispensed into wells, incubated for 30 min then 3 uL of R*48 agonist in 20 mM Hepes was added. After incubation for 5 hours, they were allowed to stand at room temperature for 15 min. To this was added 10 uL of Steady-Glo substrate reagent and shake assay plate for 5 min at 1500 rpm. The assay plate was allowed to sit for 30 min at room temperature and then the plate was read on EnVision.

As to `C[C@H]1C[C@@H](N)CN(c2ccc(Cl)c3ncccc23)C1` [Compound 78, (3R,5S)-1-(8-chloroquinolin-5-yl)-5-methylpiperidin-3-amine], the pIC50 is more than 6.00.

As to `CC1CC(C(=O)NCC2CCN(C)CC2)CN(c2ccc(C#N)c3nccnc23)C1` (centres unmarked) [Compound 539, 1-(8-Cyano-quinoxalin-5-yl)-5-methyl-piperidine-3-carboxylic acid (1-methyl-piperidin-4-ylmethyl)-amide], the pIC50 was more than 6.00.

For the compound `CC1(C)C[C@@H](NC(=O)CN2CCOCC2)CN(c2ccc(C#N)c3nccnc23)C1` [Compound 214, N-[(3R)-1-(8-cyanoquinoxalin-5-yl)-5,5-dimethylpiperidin-3-yl]-2-(morpholin-4-yl)acetamide], the pIC50 is 5.00 to 6.00.

Take `C[C@H]1C[C@@H](NC(=O)[C@H](C)N)CN(c2ccc(C#N)c3nccnc23)C1` [Compound 25, (S)-2-amino-N-((3R,5S)-1-(8-cyanoquinoxalin-5-yl)-5-methylpiperidin-3-yl)propanamide]: the pIC50 is more than 6.00.

For the compound `C[C@H]1C[C@@H](NC(=O)CC2CNC2)CN(c2ccc(C(F)F)c3nccnc23)C1` [Compound 324, 2-(azetidin-3-yl)-N-[(3R,5S)-1-[8-(difluoromethyl)quinoxalin-5-yl]-5-methylpiperidin-3-yl]acetamide], the pIC50 is 5.00 to 6.00.

`C[C@H]1C[C@@H](NC(=O)CN(C)C)CN(c2ccc(C#N)c3ncncc23)C1` [Compound 447, N-[(3R,5S)-1-(8-Cyano-quinazolin-5-yl)-5-methyl-piperidin-3-yl]-2-dimethylamino-acetamide]: the pIC50 is more than 6.00.

Consider `CC(C(=O)N[C@@H]1C[C@H](C)CN(c2ccc(C(F)(F)F)c3ncccc23)C1)N1CC(N)C1` (stereo partly drawn) [Compound 281, 2-(3-aminoazetidin-1-yl)-N-[(3R,5S)-5-methyl-1-[8-(trifluoromethyl)quinolin-5-yl]piperidin-3-yl]propanamide], for which the pIC50 was more than 6.00.

Take `COCCN[C@@H]1C[C@H](C)CN(c2ccc(C(N)=O)c3ncccc23)C1` [Compound 183, 5-[(3R,5S)-3-[(2-methoxyethyl)amino]-5-methylpiperidin-1-yl]quinoline-8-carboxamide]: the pIC50 was less than 5.00.

As for `C[C@H]1C[C@@H](NC(=O)CC2(N)CCCCC2)CN(c2ccc(C(F)(F)F)c3ncccc23)C1` [Compound 483, 2-(1-Amino-cyclohexyl)-N-[(3R,5S)-5-methyl-1-(8-trifluoromethyl-quinolin-5-yl)-piperidin-3-yl]-acetamide], the pIC50 was more than 6.00.

Consider `N#Cc1ccc(N2C[C@@H](NC(=O)CN3CCOCC3)C[C@@H](C(F)(F)F)C2)c2cccnc12` (racemic) [Compound 424, cis-N-[1-(8-Cyano-quinolin-5-yl)-5-trifluoromethyl-piperidin-3-yl]-2-morpholin-4-yl-acetamide], for which the pIC50 is 5.00 to 6.00.

Turning to `FC(F)(F)c1ccc2nccc(N3CCC(CNCCN4CCCCC4)CC3)c2c1` [Compound 387, (2-Piperidin-1-yl-ethyl)-[1-(6-trifluoromethyl-quinolin-4-yl)-piperidin-4-ylmethyl]-amine], the pIC50 is 5.00 to 6.00.

As to `CC(C)(C)CC(=O)N[C@H]1CN(c2ccc(C#N)c3nccnc23)CC(C)(C)C1` [Compound 215, N-[(3R)-1-(8-cyanoquinoxalin-5-yl)-5,5-dimethylpiperidin-3-yl]-3,3-dimethylbutanamide], the pIC50 was more than 6.00.

Turning to `C[C@H]1C[C@@H](NC(=O)C(N)C(F)(F)F)CN(c2ccc(C(F)F)c3ncccc23)C1` (single isomer, unassigned) [Compound 207], the pIC50 was 5.00 to 6.00.

As to `C[C@H]1C[C@@H](NC(=O)Cc2c[nH]cn2)CN(c2ccc(C#N)c3nccnc23)C1` [Compound 130, N-[(3R,5S)-1-(8-cyanoquinoxalin-5-yl)-5-methylpiperidin-3-yl]-2-(1H-imidazol-4-yl)acetamide hydrochloride], the pIC50 was more than 6.00.
